Data from the supplement of paper PMC13380429.

What was measured:
Settings in all cases: 72 h
Caco-2 [1] = assay: relative viability EC50 (midpoint between 100% and the lowest measured viability); higher = less toxic
Vero E6 [2] = assay: as above
U2OS [3] = assay: as above
HepG2 [4] = assay: as above
Calu-3 [5] = assay: as above
Caco-2 [6] = assay: drug sensitivity score (DSS) for viability; higher = more toxic; extreme values may be limits of the assay
Vero E6 [7] = assay: as above
U2OS [8] = assay: as above
HepG2 [9] = assay: as above
Calu-3 [10] = assay: as above
Caco-2 [11] = assay: cell viability relative to DMSO; higher = less toxic
Vero E6 [12] = assay: as above
U2OS [13] = assay: as above
HepG2 [14] = assay: as above
Calu-3 [15] = assay: as above

Row | SMILES | relative viability EC50 (Caco-2 [1]) [µM] | relative viability EC50 (Vero E6 [2]) [µM] | relative viability EC50 (U2OS [3]) [µM] | relative viability EC50 (HepG2 [4]) [µM] | relative viability EC50 (Calu-3 [5]) [µM] | drug sensitivity score (Caco-2 [6]) | drug sensitivity score (Vero E6 [7]) | drug sensitivity score (U2OS [8]) | drug sensitivity score (HepG2 [9]) | drug sensitivity score (Calu-3 [10]) | cell viability (Caco-2 [11]; 1 nM) [%] | cell viability (Caco-2 [11]; 10 nM) [%] | cell viability (Caco-2 [11]; 100 nM) [%] | cell viability (Caco-2 [11]; 1000 nM) [%] | cell viability (Caco-2 [11]; 10000 nM) [%] | cell viability (Vero E6 [12]; 1 nM) [%] | cell viability (Vero E6 [12]; 10 nM) [%] | cell viability (Vero E6 [12]; 100 nM) [%] | cell viability (Vero E6 [12]; 1000 nM) [%] | cell viability (Vero E6 [12]; 10000 nM) [%] | cell viability (U2OS [13]; 1 nM) [%] | cell viability (U2OS [13]; 10 nM) [%] | cell viability (U2OS [13]; 100 nM) [%] | cell viability (U2OS [13]; 1000 nM) [%] | cell viability (U2OS [13]; 10000 nM) [%] | cell viability (HepG2 [14]; 1 nM) [%] | cell viability (HepG2 [14]; 10 nM) [%] | cell viability (HepG2 [14]; 100 nM) [%] | cell viability (HepG2 [14]; 1000 nM) [%] | cell viability (HepG2 [14]; 10000 nM) [%] | cell viability (Calu-3 [15]; 1 nM) [%] | cell viability (Calu-3 [15]; 10 nM) [%] | cell viability (Calu-3 [15]; 100 nM) [%] | cell viability (Calu-3 [15]; 1000 nM) [%] | cell viability (Calu-3 [15]; 10000 nM) [%]
1 | CC[N+](CC)(CC)CC(=O)Nc1c(C)cccc1C [QX-314] | > 10 | > 10 | > 10 | > 10 | > 10 | 0 | 0 | 0 | 0 | 0 | 91.8 | 93.4 | 97 | 102 | 95.6 | 95.9 | 99.2 | 93.7 | 97.8 | 93.6 | 103 | 96.9 | 102 | 95.7 | 101 | 95.3 | 104 | 92.6 | 94.4 | 95.7 | 102 | 93.6 | 89.1 | 96.9 | 89.2
2 | CC1(C)CC(=O)c2c(C(F)(F)F)nn(-c3ccc(C(N)=O)c(N[C@H]4CC[C@H](OC(=O)CN)CC4)c3)c2C1 [SNX-5422] | 0.189 | 0.612 | 0.135 | 0.0395 | 0.161 | 13.5 | 10.6 | 21.9 | 28.8 | 13.1 | 90.2 | 95.8 | 85.4 | 37.3 | 35.2 | 95.6 | 94 | 97.5 | 47.3 | 25.8 | 92 | 105 | 68.9 | 3.4 | 3.4 | 101 | 92.9 | 15.8 | 0.9 | 1.9 | 85.3 | 93.9 | 80.9 | 40.5 | 38.7
3 | O=C(Nc1ccccc1-c1cn2c(CN3CCNCC3)csc2n1)c1cnc2ccccc2n1 [SRT1720] | 3.05 | 2.72 | 3.3 | 2.47 | 3.3 | 5.5 | 6.4 | 5.4 | 6.9 | 5.3 | 88.6 | 93.3 | 99.7 | 98.4 | 5.4 | 98.2 | 97.7 | 97.7 | 94.3 | 0.1 | 102 | 99.7 | 98.1 | 102 | 0.2 | 94 | 94.4 | 102 | 91.6 | 0.3 | 102 | 101 | 103 | 102 | 0.9
4 | N#Cc1c(N(CC(=O)O)CC(=O)O)sc(C(=O)O)c1CC(=O)O [Strontium Ranelate] | > 10 | > 10 | > 10 | > 10 | > 10 | 0 | 0 | 0 | 0 | 0 | 93 | 102 | 93.6 | 106 | 91.2 | 96.7 | 101 | 100 | 97.6 | 99.8 | 97.3 | 102 | 100 | 101 | 96.7 | 93.7 | 94.9 | 103 | 100 | 108 | 106 | 87.9 | 98.7 | 104 | 104
5 | CCOc1cncc(/C=C/CCNC)c1 [TC2559] | > 10 | > 10 | > 10 | > 10 | > 10 | 0 | 0 | 0 | 0 | 0 | 97.9 | 99.4 | 100 | 108 | 102 | 94.1 | 94.5 | 89.2 | 90.2 | 110 | 101 | 102 | 97 | 101 | 104 | 100 | 93.1 | 110 | 96.7 | 117 | 87.6 | 98.9 | 98.2 | 95.9 | 109
6 | CC(C)(C)c1ccc(C(=O)Nc2cn3cc(-n4ccnc4)ccc3n2)cc1 [TC-ASK-10] | > 10 | > 10 | > 10 | > 10 | > 10 | 0.2 | 0 | 0 | 0.6 | 0 | 96.1 | 101 | 99.3 | 109 | 81.8 | 93.2 | 103 | 93.8 | 95.5 | 99.1 | 96.4 | 97.3 | 99.5 | 98.8 | 91.6 | 87.1 | 102 | 98.4 | 104 | 77.2 | 97.9 | 95.6 | 105 | 105 | 93.9
7 | CC(C)c1c(NC(=O)Nc2ccc(Cl)cc2)c(=O)n(-c2ccccc2)n1C [TC-FPR-43] | > 10 | > 10 | > 10 | > 10 | > 10 | 0 | 0 | 0 | 0 | 0 | 98.8 | 105 | 102 | 98.6 | 99.2 | 96.7 | 96.8 | 94.2 | 96.9 | 92.4 | 97.1 | 103 | 99.3 | 107 | 93.2 | 90.9 | 105 | 101 | 94.3 | 94.5 | 106 | 102 | 100 | 105 | 96.5
8 | Cc1cccc(C)c1-n1c(=O)c2cnc(Nc3ccc(N4CCN(C)CC4)cc3)nc2n2c3ccccc3nc12 [TC-S-7003] | 1.31 | 0.527 | 1.15 | 0.915 | 1.4 | 8.7 | 12.6 | 10.5 | 10.5 | 9.4 | 88.3 | 87.9 | 88.3 | 66.1 | 11.6 | 96.9 | 97.4 | 71.7 | 54.6 | 10.6 | 97 | 98.2 | 91.8 | 56.5 | 0.4 | 98 | 101 | 82 | 58.6 | 9 | 106 | 101 | 95.6 | 70.5 | 5.2
9 | COc1ncc2cc(C(=O)Nc3cc(C(=O)NCc4cccc(Cl)c4)ccc3Cl)c(=O)[nH]c2n1 [TC-S-7004] | > 10 | > 10 | > 10 | > 10 | > 10 | 0 | 0 | 0 | 0 | 0 | 111 | 107 | 99.6 | 98.6 | 95 | 104 | 101 | 102 | 100 | 95 | 98.8 | 102 | 103 | 103 | 99.1 | 98.6 | 97.4 | 100 | 87.7 | 101 | 94.8 | 94.8 | 105 | 104 | 104
10 | CCCCCCC(=O)OC1CC(C)(C)NC(C)(C)C1 [TMPH] | > 10 | > 10 | > 10 | > 10 | > 10 | 0 | 0 | 0 | 0 | 0 | 106 | 99.4 | 99.3 | 103 | 102 | 99 | 96.4 | 101 | 95.2 | 98.4 | 99.7 | 101 | 98.9 | 99.6 | 99.1 | 109 | 93.5 | 99.5 | 92.9 | 106 | 102 | 89.7 | 96 | 108 | 98.7
11 | CC(=O)N[C@@H](CSC/C=C(\C)CC/C=C(\C)CCC=C(C)C)C(=O)O [acetyl-farnesyl-cysteine] | > 10 | > 10 | > 10 | > 10 | > 10 | 0 | 0 | 0 | 0 | 0 | 92.9 | 98.1 | 100 | 101 | 108 | 93.9 | 107 | 93 | 99.6 | 101 | 95.7 | 96.9 | 101 | 99 | 101 | 90.9 | 92.5 | 99.8 | 102 | 105 | 108 | 84.9 | 86.6 | 99.9 | 101
12 | CCC[S+]([O-])c1ccc2[nH]c(NC(=O)OC)nc2c1 (stereo not given) [albendazole-oxide] | > 10 | > 10 | > 10 | > 10 | > 10 | 0 | 0 | 0 | 0.2 | 0 | 101 | 98.8 | 96.6 | 101 | 102 | 103 | 104 | 102 | 101 | 94 | 105 | 101 | 101 | 99.6 | 103 | 107 | 103 | 98 | 106 | 83.7 | 114 | 104 | 103 | 95.7 | 107
13 | O=C1c2cccc(O)c2C(=O)c2c(O)cc(CO)cc21 [aloe-emodin] | > 10 | > 10 | > 10 | > 10 | > 10 | 0 | 0 | 0 | 0 | 0 | 99.3 | 104 | 98.8 | 92.4 | 91.8 | 103 | 104 | 101 | 102 | 98.5 | 97 | 98 | 98.6 | 96.9 | 102 | 95 | 100 | 90.6 | 105 | 95.2 | 93.4 | 92.5 | 103 | 97.8 | 97.6
14 | CCCN(CCC)C(=O)Cc1c(-c2ccc(Cl)cc2)nc2ccc(Cl)cn12 [alpidem] | > 10 | > 10 | > 10 | > 10 | > 10 | 0 | 0 | 0 | 0 | 0 | 91.5 | 103 | 102 | 104 | 100 | 102 | 99.6 | 104 | 97.4 | 112 | 92.6 | 97.4 | 95.9 | 104 | 112 | 92.5 | 94.6 | 96.6 | 102 | 95.1 | 95.7 | 96.4 | 96.2 | 98.9 | 107
